What was measured:
Assay in all cases: relative viability (nuclei count vs DMSO), 5 days (fraction); higher = more cells survive
QS11 + Crizotinib = compound: C1CC2=C(C1)C=C(C=C2)OC3=NC(=C4C(=N3)N(C=N4)CC5=CC=C(C=C5)C6=CC=CC=C6)N[C@@H](CC7=CC=CC=C7)CO [QS11] + C[C@@H](Oc1cc(-c2cnn(C3CCNCC3)c2)cnc1N)c1c(Cl)ccc(F)c1Cl [Crizotinib] (partner 1 µM)
How it was run: (§1)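 A single step with final 0.05% Triton X-100, 1% formaldehyde and 1 ug/ml Hoechst fixed the cells and stained nuclei 5 days after treatment. Lung cancer cell lines in 1536-well plates had been treated by pin tool the day after seeding with one drug alone or a fixed anchor-drug dose plus five library-drug doses (not always all listed) in √10 steps, and nuclei were counted on 4× images. Relative viability is the ratio of nuclei in treated wells to nuclei in vehicle wells, taken as the median of duplicate plates.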

QS11 + Phenformin = compound: C1CC2=C(C1)C=C(C=C2)OC3=NC(=C4C(=N3)N(C=N4)CC5=CC=C(C=C5)C6=CC=CC=C6)N[C@@H](CC7=CC=CC=C7)CO [QS11] + N=C(N)NC(=N)NCCc1ccccc1 [Phenformin] (partner 250 µM)
How it was run: as §1

AZ628 + Dasatinib = compound: CC1=C(C=C(C=C1)NC(=O)C2=CC(=CC=C2)C(C)(C)C#N)NC3=CC4=C(C=C3)N=CN(C4=O)C [AZ628] + Cc1nc(Nc2ncc(C(=O)Nc3c(C)cccc3Cl)s2)cc(N2CCN(CCO)CC2)n1 [Dasatinib] (partner 0.075 µM)
How it was run: as §1

[1] = compound: C[As](C)SC[C@H](NC(=O)CC[C@H](N)C(=O)O)C(=O)NCC(=O)O [Darinaparsin] + CC(C)C[C@H](NC(=O)[C@H](Cc1ccccc1)NC(=O)c1cnccn1)B(O)O [Bortezomib] (partner 0.002 µM)
How it was run: as §1

Cell Line	relative viability (QS11 + Crizotinib; first compound 0.08 µM)	relative viability (QS11 + Crizotinib; first compound 0.253 µM)	relative viability (QS11 + Crizotinib; first compound 0.8 µM)	relative viability (QS11 + Crizotinib; first compound 2.53 µM)	relative viability (QS11 + Crizotinib; first compound 8 µM)	relative viability (QS11 + Phenformin; first compound 0.08 µM)	relative viability (QS11 + Phenformin; first compound 0.253 µM)	relative viability (QS11 + Phenformin; first compound 0.8 µM)	relative viability (QS11 + Phenformin; first compound 2.53 µM)	relative viability (QS11 + Phenformin; first compound 8 µM)	relative viability (AZ628 + Dasatinib; first compound 0.08 µM)	relative viability (AZ628 + Dasatinib; first compound 0.253 µM)	relative viability (AZ628 + Dasatinib; first compound 0.8 µM)	relative viability (AZ628 + Dasatinib; first compound 2.53 µM)	relative viability (AZ628 + Dasatinib; first compound 8 µM)	relative viability ([1]; first compound 0.08 µM)	relative viability ([1]; first compound 0.8 µM)	relative viability ([1]; first compound 2.53 µM)	relative viability ([1]; first compound 8 µM)
NCI-H2347	0.683	0.645	0.671	0.501	0.76	0.374	0.395	0.362	0.364	0.637	0.272	0.278	0.22	0.252	0.163	1.18	0.742	0.831	1.16
NCI-H2405	0.822	0.883	0.808	0.88	0.95	0.361	0.443	0.372	0.45	0.399	0.175	0.201	0.189	0.172	0.23	1.08	0.936	0.899	1.09
NCI-H3122	0.25	0.3	0.313	0.436	0.616	0.376	0.399		0.384	0.322	0.819	0.39	0.15	0.212	0.176	1.04	1.02	1.08	1.13
PC-3 [JPC-3]	0.957	0.97	0.949	1.03	1.01	0.446	0.476	0.461	0.489	0.431	0.936	0.893	1.02	1.05	0.604	0.98	0.829	0.73	0.815
PC-14	0.851	0.896	0.871	0.848	0.911	0.384	0.49	0.574	0.683	0.737	0.274	0.289	0.315	0.262	0.146	0.925	0.77	0.753	1.11
RERF-LC-KJ	0.467	0.906	0.847	0.769	0.759	0.407	0.41	0.438	0.378	0.315	0.737	0.72	0.752	0.75	0.64	1.33	1.14	1.14	1.12
SK-LU-1	1.1	0.822	0.63	0.544	0.785	0.527	0.557	0.587	0.404	0.456		0.179	0.231	0.208	0.22	1.58	1.19	0.871	1.33
SW 1573	0.802	0.796	0.817	0.629	0.876	0.407	0.374	0.413	0.442	0.346	0.535	0.422	0.381	0.434	0.302	1.02	1.01	1.05	1.29
UMC-11	0.724	0.616	0.653	0.679	0.686	0.325	0.287	0.302	0.324	0.24	0.659	0.448	0.474	0.5	0.47	0.81	0.728	0.442	0.739
